This is an account of results in patent publication US20160050930A1, “METHODS OF CONTROLLING NEONICOTINOID RESISTANT PESTS” (SYNGENTA PARTICIPATIONS AG, priority 2013, published 2016).

Where a name gives a salt, the structure may show the parent alone.

Consider `CC(C)(C)OC(=O)N1[C@@H]2CC[C@H]1C[C@](C#N)(c1cncc(Br)c1)C2`, for which the melting point – broadly, the temperature of the solid-liquid transition – fell in the range of 125 to 127 °C. With `N#C[C@@]1(c2cncc(Br)c2)C[C@H]2C=C[C@@H](C1)N2`, the melting point lay within 152 to 153 °C. As to `N#C[C@@]1(c2cncc(F)c2)C[C@H]2C=C[C@@H](C1)N2C1CCC1`, the melting point lay within 91 to 93 °C. `N#C[C@@]1(c2cncc(Br)c2)C[C@H]2CC[C@@H](C1)N2`: the melting point was 128 to 130 °C. Then `N#C[C@@]1(c2cncc(I)c2)C[C@H]2C=C[C@@H](C1)N2C1COC1`, with 170 to 171 °C. With `N#C[C@@]1(c2cncc(Br)c2)C[C@H]2CC[C@@H](C1)N2` (as salt: TFA) the figure was 176 to 178 °C.
